Data: patent US20080255193A1, “Pharmaceutical Composition” (priority 2005, published 2008)
In brackets after ≈: the same amount, converted by molar mass.

Experiment: Aqueous solubility of talnetant
Type: physicochemical
Settings: aqueous medium
Description: Talnetant has low aqueous solubility (approximately 0.03 mg/ml at pH 1 and 0.001 mg/ml, at pH 7.0). Typically drugs with low aqueous solubility are absorbed slowly across the walls of the gastrointestinal tract (GIT) due to poor dissolution of the solid in the GIT leading to a small diffusive driving force.

- solubility (aqueous buffer, pH 7.0): ~0.001 mg/mL (≈ 2.61 µM)
- solubility (pH 1, simulated gastric fluid): ~0.03 mg/mL (≈ 78.4 µM)
SMILES: CC[C@H](NC(=O)c1c(O)c(-c2ccccc2)nc2ccccc12)c1ccccc1 [Talnetant, (S)-(−)-N-(α-ethylbenzyl)-3-hydroxy-2-phenylquinoline-4-carboxamide]
